Assay results: US8865750B2, “Small molecule inhibitors of RGS proteins” (The Regents of The University of Michigan, priority 2011, dated 2014)
Entries after “also recorded” stand apart in the source; their conditions may differ.

How the values were obtained:
[1] = target: RGS7 (Homo sapiens (Human), UniProt P49802); test: FCPIA: Gαo binding to RGS7; conditions: Table 7
Protocol: FCPIA Dose Response and Reversibility Experiments:
FCPIA was performed as previously described using chemically biotinylated RGS proteins and AlexaFluor-532 labeled Gα0. (Roman et al., J Biomol Screen, 2009; Blazer, L. L., et al., Mol Pharmacol).
RGS/Gα binding studies: The binding of biotinylated RGS proteins to fluorescently labeled Gαo was measured by Flow Cytometry Protein Interaction Assay (FCPIA) method previously described (Roman et al., (2009) J Biomol Screen.; Blazer et al., (2010) Curr Protoc Cytom Chapter 13, Unit 13 11 11-15; Roman et al., (2007) Mol Pharmacol 71, 169-175) as were the measures of compound reversibility.

[2] = target: T1, RGS4 (Homo sapiens (Human), UniProt P49798); test: Single turnover GTPase (GAP) assay, RGS4; assay type: biochemical
Protocol: Single Turnover GTPase Measurements:
Compounds were tested for the ability to inhibit the RGS4 and RGS8-stimulated increase in GTP hydrolysis by Gα0 as described previously (Roman, D. L., et al., Mol Pharmacol, 2007. 71(1): p. 169-75; Roof, R. A., et al., Chem Biol Drug Des, 2006. 67(4): p. 266-74).
Compounds were tested for the ability to inhibit the RGS4 and RGS8-stimulated increase in GTP hydrolysis by Gα0 as previously described (Roman, D. L., et al., Mol Pharmacol, 2007. 71(1): p. 169-75; Roof, R. A., et al., Chem Biol Drug Des, 2006. 67(4): p. 266-74).
Single-turnover GAP assay: Experiments were performed as previously described using purified his6-tagged Gαo (Blazer et al., Biochemistry 50, 3181-3192; Roof et al., (2008) Chem Biol Drug Des 72, 111-119).
Target sequence in this assay (P49798 52-205, species assumed): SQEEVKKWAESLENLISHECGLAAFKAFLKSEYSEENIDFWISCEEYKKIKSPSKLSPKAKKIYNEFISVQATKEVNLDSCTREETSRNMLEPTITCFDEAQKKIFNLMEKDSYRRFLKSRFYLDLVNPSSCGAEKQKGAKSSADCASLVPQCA

[3] = tested on: M3 muscarinic receptor; test: Carbachol-induced Ca2+ response, M3 cells without RGS4 dependence; assay type: cell-based; conditions: for effect on carbachol-induced Ca2+ response (RGS-independent): 10 μM (FIG. 20) or as stated
Protocol: Calcium Mobilization Experiments:
(§1) A stable cell line was developed based upon the HEK-293 Flp-In TREx cell line (Invitrogen, Carlsbad, Calif.) that stably express the muscarinic M3 receptor and have human RGS4 expression under doxycycline control. Cells were maintained in DMEM supplemented with 10% fetal bovine serum and Penicillin (100 units/ml)-Streptomycin (100 μg/ml) under 5% CO2 at 37° C. For experiments, cells were split into 96-well black, clear bottom, poly-D-lysine coated microtiter plates (Nunc, Cat. #152037) at a density of 20,000 cells/well in DMEM containing 10% fetal bovine serum and Penicillin (100 units/ml), Streptomycin (100 μg/ml). RGS4 expression was induced by supplementing the medium with 1 μg/mL doxycycline for 24-48 hours before experimentation. Cells were loaded with Fluo-4 No Wash dye in buffer for 30 minutes at 37° C. Compounds and/or carbachol were added to the wells and the fluorescence intensity was measured using a FlexStation (Molecular Devices, Sunnyvale, Calif.) plate reader. Data analysis was performed by calculating the area under the curve or maximal fluorescence intensity from a 120 second kinetic measurement.
as §1, with “Calcium signaling transients: A” for “A”, “units/ml)-Streptomycin” for “units/ml), Streptomycin”

[4] = target: T1, RGS4; test: Steady-state GAP assay (malachite green); assay type: biochemical
Protocol: Steady-state GAP Assay: Steady-state hydrolysis of unlabled GTP was measured using malachite green in a receptor-independent assay utilizing a mutant Gαi1 (R178M, A326S) (Zielinski et al., (2009) J Biomol Screen 14, 1195-1206). These mutations facilitate the release of GDP from the enzyme making the GTP hydrolysis step rate-limiting (Lielinski et al., supra). […] The reaction is allowed to proceed for 2 hours at room temperature and then quenched with an H2SO4/malachite green dye solution. Immediately after addition of malachite green, sodium citrate was added as a colorimetric stablizer. Released inorganic phosphate was measured as an increase in absorbance (Abs630) from the complex of phosphate with malachite green (Chang, et al., 2008). Background control samples lacking Gα or RGS were used to determine the rate of non-enzymatic GTP hydrolysis.
Target sequence in this assay (P49798 whole entry, species assumed): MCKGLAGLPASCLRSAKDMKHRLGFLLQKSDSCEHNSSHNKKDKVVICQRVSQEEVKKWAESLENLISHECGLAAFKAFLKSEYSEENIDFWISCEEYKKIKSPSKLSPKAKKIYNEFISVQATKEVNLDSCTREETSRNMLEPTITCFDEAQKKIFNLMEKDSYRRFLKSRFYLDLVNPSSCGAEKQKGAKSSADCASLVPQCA

Chain of RGS7 (P49802 whole entry, species assumed): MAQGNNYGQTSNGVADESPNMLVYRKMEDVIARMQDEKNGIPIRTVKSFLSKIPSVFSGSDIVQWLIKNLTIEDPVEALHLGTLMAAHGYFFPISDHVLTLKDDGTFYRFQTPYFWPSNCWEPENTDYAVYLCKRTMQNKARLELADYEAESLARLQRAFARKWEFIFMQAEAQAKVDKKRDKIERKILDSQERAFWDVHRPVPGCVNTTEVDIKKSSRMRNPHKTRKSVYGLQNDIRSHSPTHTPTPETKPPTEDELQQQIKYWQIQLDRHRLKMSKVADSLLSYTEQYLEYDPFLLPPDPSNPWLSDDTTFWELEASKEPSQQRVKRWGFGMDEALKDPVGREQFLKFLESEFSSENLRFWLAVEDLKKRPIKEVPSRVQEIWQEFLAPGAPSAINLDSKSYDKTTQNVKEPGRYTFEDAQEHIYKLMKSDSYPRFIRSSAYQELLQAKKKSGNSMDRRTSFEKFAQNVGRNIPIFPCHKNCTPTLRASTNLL

## CCCCn1c(=O)sn(CC)c1=O [CCG-203769, 2-ethyl-4-butyl-1,2,4-thiadiazolidine-3,5-dione]
[1]
  IC50: > 100 µM
[2]
  inhibition of GAP activity of RGS4: potently inhibits the functional effect of RGS4
[3]
  concentration above which carbachol Ca2+ transient is inhibited: > 3 µM
  effect on carbachol-induced Ca2+ response (RGS-independent): without affecting M3-mediated calcium signal; also recorded: does not directly affect the carbachol stimulation
[3]; listed as 11b
  effect on carbachol-induced Ca2+ response (RGS-independent): no effect
[4]
  inhibition of RGS4 effect in steady-state GTPase assay: potently inhibits the functional effect of RGS4
